The record followed here is patent US20220362396A1, “AMINO-PYRAZINECARBOXAMIDE COMPOUNDS, CONJUGATES, AND USES THEREOF” (Silverback Therapeutics, Inc., priority 2018, published 2022).

The subject of the experiment is TGFβ/SMAD Signaling Pathway SBE reporter cell line. Kind of experiment: TGFβ reporter assay, in vitro small molecule screening (luciferase). The class given is cell-based. The conditions noted are these: TGFβ stimulation, luminescence. The method, then:
TGFβ/SMAD Signaling Pathway SBE reporter cell line was obtained from BPS Bioscience. Cells were passed, expanded, and stored in liquid nitrogen as per the supplier's instructions with the exception that growth media is changed to DMEM-C with Geneticin (DMEM supplemented with 10% fetal bovine serum, 1×NEAA, 1 mM Pyruvate, 2 mM glutamine, 50 μg/mL penicillin, 50 U/mL streptomycin and 400 μg/mL of Geneticin). The assay media was MEM supplemented with 0.5% fetal bovine serum, 1×NEAA, 1 mM Pyruvate, 50 μg/mL penicillin and 50 U/mL streptomycin.
Test samples (at desired concentrations diluted in assay media) were added to a 96-well assay plate, 20 μL per well. Reporter cells were harvested from the tissue culture flasks by incubation in small quantity of PBS at 37° C. for two minutes after the media in the flask is removed and cells rinsed with PBS. Cells were counted and diluted in the assay media at approximately 0.5×10^6 cells/mL and then 80 μL/well of cells were added to the assay plate containing the 20 μL/well of test samples (or media only), and incubated for approximately 5-6 hours at 37° C. in a 5% CO2 humidified incubator. After that time, 15 μL of TGFβ diluted to 12 ng/mL in the assay media was added to the plate. Controls included TGFβ titration (from 50 to 0 ng/mL) without inhibitors, and media only (without cells, inhibitor or TGFβ). Plates were incubated at 37° C. in a 5% CO2 humidified incubator for 18 h. Luciferase substrate solution is subsequently added at 100 μL per well, incubated in the dark at room temperature for 15 min, and luminescence is measured using a luminometer. EC50 values and curve fits were obtained using Prism (GraphPad Software).
One may read the EC50 as the midpoint of the concentration-response curve. `Nc1ncc(-c2ccc(N(CCO)CCNC(=O)OCc3ccccc3)cc2)nc1C(=O)Nc1cnccc1N1CCOCC1` [Compound 293] returned an EC50 of 100 to 1000 nM. In the case of `CC(S)CCC(=O)NCC(C)Oc1ccc(-c2cnc(N)c(C(=O)Nc3cnccc3N3CCOCC3)n2)cc1` (centres unmarked) [Compound 287] it was 100 to 1000 nM. `COC(=O)[C@@H](C)N(C)c1ccc(-c2cnc(N)c(C(=O)Nc3cnccc3N3CCOCC3)n2)cc1` [Compound 294] yielded an EC50 of 100 to 1000 nM. For `C[C@@H](C(=O)O)N(C)c1ccc(-c2cnc(N)c(C(=O)Nc3cnccc3N3CCOCC3)n2)cc1` [Compound 298] the value was 100 to 1000 nM; for `Nc1ncc(-c2ccc(N3CCC[C@H](N)C3)cc2)nc1C(=O)Nc1cnccc1N1CCOCC1` [Compound 285], 50 to 100 nM; for `N#Cc1cnccc1-c1ccncc1NC(=O)c1nc(-c2ccc(CCNC(=O)OCc3ccccc3)cc2)cnc1N` [Compound 9], 100 to 1000 nM. For the molecule `Nc1ncc(-c2ccc(CCNC(=O)[C@H](CCC(=O)O)NC(=O)OCc3ccccc3)cc2)nc1C(=O)Nc1cnccc1N1CCOCC1` [Compound 11], the EC50 was greater than 1000 nM. Take `CC(C)(C)OC(=O)N[C@@H]1CCCN(c2ccc(-c3cnc(N)c(C(=O)Nc4cnccc4N4CCOCC4)n3)cc2)C1` [Compound 284]: the EC50 fell in the range of 100 to 1000 nM. Molecule `COC(=O)[C@H](C)N(C)c1ccc(-c2cnc(N)c(C(=O)Nc3cnccc3N3CCOCC3)n2)cc1` [Compound 297] yielded an EC50 of 100 to 1000 nM. For `Cc1cc(CNC(=O)OCc2ccccc2)ccc1-c1cnc(N)c(C(=O)Nc2cnccc2N2CCOCC2)n1` [Compound 60] the value was 100 to 1000 nM; for `CC(C)(C)OC(=O)N[C@@H](CCCCN)C(=O)NCCc1ccc(-c2cnc(N)c(C(=O)Nc3cnccc3N3CCOCC3)n2)cc1` [Compound 12], 100 to 1000 nM. Consider `CC(CNC(=O)CCC(C)(C)S)Oc1ccc(-c2cnc(N)c(C(=O)Nc3cnccc3N3CCOCC3)n2)cc1` (centres unmarked) [Compound 288], for which the EC50 was in the range of 100 to 1000 nM. For `C[C@H](C(=O)O)N(C)c1ccc(-c2cnc(N)c(C(=O)Nc3cnccc3N3CCOCC3)n2)cc1` [Compound 295] the value was 100 to 1000 nM; for `N#Cc1ncccc1-c1ccncc1NC(=O)c1nc(-c2ccc(CCNC(=O)OCc3ccccc3)cc2)cnc1N` [Compound 13], greater than 1000 nM. For the molecule `Nc1ncc(-c2ccc(N[C@@H]3CCNC3)cc2)nc1C(=O)Nc1cnccc1N1CCOCC1` [Compound 281], the EC50 lay in the range of 100 to 1000 nM. As for `N#Cc1cnccc1-c1ccncc1NC(=O)c1nc(-c2ccc(CCNC(=O)OCc3ccccc3)cc2)cnc1N` [Compound 10], the EC50 was greater than 1000 nM. As for `CC(C)(C)OC(=O)N1CC[C@@H](Nc2ccc(-c3cnc(N)c(C(=O)Nc4cnccc4N4CCOCC4)n3)cc2)C1` [Compound 282], the EC50 lay within 100 to 1000 nM. In the case of `CN(C)C1CCN(c2ccc(-c3cnc(N)c(C(=O)Nc4cnccc4N4CCOCC4)n3)cc2)CC1` [Compound 290] it was less than 50 nM; in that of `Nc1ncc(-c2ccc([C@@H]3CNC[C@H]3C(=O)O)cc2)nc1C(=O)Nc1cnccc1N1CCOCC1` [Compound 231], greater than 1000 nM; in that of `CN(c1ccc(-c2cnc(N)c(C(=O)Nc3cnccc3N3CCOCC3)n2)cc1)C1CCNCC1` [Compound 301], 50 to 100 nM.

For the molecule `NCCc1ccc(-c2cnc(N)c(C(=O)Nc3cnccc3N3CCOCC3CO)n2)cc1` (centres unmarked) [Compound 8], the EC50 was 100 to 1000 nM.

The molecule `COCCNc1ccncc1NC(=O)c1nc(-c2ccc(CCNC(=O)OCc3ccccc3)cc2)cnc1N` [Compound 99] yielded an EC50 greater than 1000 nM. Molecule `COCCNc1ccncc1NC(=O)c1nc(-c2ccc(CCN)cc2)cnc1N` [Compound 100] came in with an EC50 greater than 1000 nM. In the case of `C[C@H](CO)N(C)c1ccc(-c2cnc(N)c(C(=O)Nc3cnccc3N3CCOCC3)n2)cc1` [Compound 296] it was less than 50 nM; in that of `CC(C)(C)OC(=O)N[C@H]1CCCN(c2ccc(-c3cnc(N)c(C(=O)Nc4cnccc4N4CCOCC4)n3)cc2)C1` [Compound 286], 100 to 1000 nM. In the case of `CN(c1ccc(-c2cnc(N)c(C(=O)Nc3cnccc3N3CCOCC3)n2)cc1)[C@@H]1CCN(C(=O)OC(C)(C)C)C1` [Compound 300] it was 100 to 1000 nM.
